Source: PubChem BioAssay (NCI)
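Growth conditions: 96-well plates. Treatment: test compound, 48 hours, 5 concentrations. Analysis: linear interpolation between bracketing concentrations; unreached endpoints set to highest concentration. Here, GI50 denotes the concentration required for 50% inhibition of growth. TGI is the concentration that stops growth completely.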

How the values were obtained:
Test in all cases: NCI tumour cell line growth inhibition, 48 h
DU-145 prostate = tested on: DU-145 prostate
HCT-15 colon = tested on: HCT-15 colon
MALME-3M melanoma = tested on: MALME-3M melanoma
MDA-MB-231 breast = tested on: MDA-MB-231 breast
NCI-H226 lung = tested on: NCI-H226 lung
NCI-H23 lung = tested on: NCI-H23 lung
NCI-H522 lung = tested on: NCI-H522 lung
OVCAR-8 ovarian = tested on: OVCAR-8 ovarian
SF-539 CNS = tested on: SF-539 CNS
CCRF-CEM leukemia = tested on: CCRF-CEM leukemia

Structure (SMILES)	TGI (DU-145 prostate) [µM]	TGI (HCT-15 colon) [µM]	TGI (MALME-3M melanoma) [µM]	TGI (MDA-MB-231 breast) [µM]	TGI (NCI-H226 lung) [µM]	TGI (NCI-H23 lung) [µM]	TGI (NCI-H522 lung) [µM]	TGI (OVCAR-8 ovarian) [µM]	TGI (SF-539 CNS) [µM]	GI50 (CCRF-CEM leukemia) [µM]	TGI (CCRF-CEM leukemia) [µM]	GI50 (DU-145 prostate) [µM]	GI50 (HCT-15 colon) [µM]	GI50 (MALME-3M melanoma) [µM]	GI50 (MDA-MB-231 breast) [µM]	GI50 (NCI-H226 lung) [µM]	GI50 (NCI-H23 lung) [µM]	GI50 (NCI-H522 lung) [µM]	GI50 (OVCAR-8 ovarian) [µM]	GI50 (SF-539 CNS) [µM]
C[N+](C)(C)CC1CCCC1=O (centres undefined)	0.0951	7.44	1.61	2.77	34.6	9.67	0.0171	4.99	6.05											
N#CCCN1C/C(=C/c2ccc(Cl)cc2)C(=O)/C(=C/c2ccc(Cl)cc2)C1	4.2	1.78	5.22	7.44	8.48	5.61	3.41	11.6	2.74	0.396	2.88	1.9	0.412	2.24	2.01	2.35	2.18	1.77	0.543	1.32
C#CCNC(=O)[C@H](CC)[C@H]1CC[C@H](C)[C@H]([C@@H](C)[C@H](O)[C@H](C)C(=O)[C@H](CC)C2O[C@]3(C=CC(=O)[C@]4(CC[C@@](C)([C@H]5CC[C@](O)(CC)[C@H](C)O5)O4)O3)[C@H](C)C[C@@H]2C)O1 (some centres undefined)	6.32	7.81	6.15	5.14	22.6	> 100	5.39	35.8	3.36	2.76	19.3	2.41	2.61	2.05	1.92	2.94	2.83	1.87	2.96	1.75
CC(=O)NCc1cccc(C#Cc2cncnc2Nc2ccc(OCc3cccc(F)c3)c(Cl)c2)c1	> 25	> 25	> 25	> 25	> 25	> 25	> 22.4	> 25	> 25	13.4	> 25	10.1	8.31	19.4	> 25	> 21.1	14.1	6.55	9.58	> 21.1
Oc1c(I)cc(I)c2cccnc12	58	> 100	27.6	46.7	29.2	9.52	> 100	47.1	23.5	6.95	> 100	8.25	4.29	0.573	6.99	4.51	2.19	2.96	3.35	4.16
Oc1cccc2ccc(N/N=C/c3cc(CN4CCOCC4)c(O)c4ncccc34)nc12	6.22	1.78	1.89	2.25	5.57	1.73	1.48	2.09	1.64	0.0391	9.95	0.0645	< 0.0104	0.032	0.0441	0.533	0.0327	< 0.0165	0.0207	0.0352
